Data published in the supplement of paper PMC10307832.

compound: CC1=C(N=C(N=C1N)[C@H](CC(=O)N)NC[C@@H](C(=O)N)N)C(=O)N[C@@H]([C@H](C2=CN=CN2)OC3C(C(C(C(O3)CO)O)O)OC4C(C(C(C(O4)CO)O)OC(=O)N)O)C(=O)N[C@H](C)[C@H]([C@H](C)C(=O)N[C@@H]([C@@H](C)O)C(=O)NCCC5=NC(=CS5)C6=NC(=CS6)C(=O)NCCC[S+](C)C)O [Bleomycin]; test: relative viability (nuclei count vs DMSO), 5 days (fraction); higher = more cells survive; settings: 0.01 µM; main component drawn
How it was run: (§1)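 Following overnight incubation at 37 °C, lung cancer cell lines in 1536-well plates were pinned with five library-drug doses (not always all listed) in √10 steps on vehicle-anchored plates. The cells then spent 5 days without medium change before a combined fix, permeabilisation and Hoechst stain, 4× imaging and MetaXpress nuclear counts. Viability is the treated-to-vehicle ratio of nuclei, taken as the median across plates. Only plates with control CV below 25% and at least one doubling passed.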

| Cell Line | relative viability |
| --- | --- |
| NCI-H1944 | 0.53 |
| NCI-H1975 | 0.746 |
| SK-LU-1 | 0.897 |
| ABC-1 | 0.741 |
| NCI-H358 | 0.879 |
| NCI-H661 | 0.907 |
| RERF-LC-KJ | 0.694 |

same assay, conditions: 0.03162 µM; main component drawn

| Cell Line | relative viability |
| --- | --- |
| NCI-H1944 | 0.481 |
| NCI-H1975 | 0.714 |
| SK-LU-1 | 1.01 |
| ABC-1 | 0.942 |
| NCI-H358 | 0.944 |
| NCI-H661 | 0.875 |
| RERF-LC-KJ | 0.675 |

same assay, conditions: 0.1 µM; main component drawn

| Cell Line | relative viability |
| --- | --- |
| NCI-H1944 | 0.397 |
| NCI-H1975 | 0.589 |
| SK-LU-1 | 0.909 |
| ABC-1 | 0.891 |
| NCI-H358 | 0.829 |
| NCI-H661 | 0.767 |
| RERF-LC-KJ | 0.591 |

same assay, conditions: 0.3162 µM; main component drawn

| Cell Line | relative viability |
| --- | --- |
| NCI-H1944 | 0.232 |
| NCI-H1975 | 0.289 |
| SK-LU-1 | 0.588 |
| ABC-1 | 0.383 |
| NCI-H358 | 0.445 |
| NCI-H661 | 0.475 |
| RERF-LC-KJ | 0.308 |

same assay, conditions: 1 µM; main component drawn

| Cell Line | relative viability |
| --- | --- |
| NCI-H1944 | 0.184 |
| NCI-H1975 | 0.226 |
| SK-LU-1 | 0.411 |
| ABC-1 | 0.29 |
| NCI-H358 | 0.428 |
| NCI-H661 | 0.394 |
| RERF-LC-KJ | 0.271 |

compound: COc1cc([C@@H]2c3cc4c(cc3[C@@H](O[C@@H]3O[C@@H]5CO[C@@H](C)O[C@H]5[C@H](O)[C@H]3O)[C@H]3COC(=O)[C@H]23)OCO4)cc(OC)c1O [Etoposide]; test: as above; settings: 0.01 µM
How it was run: as §1

| Cell Line | relative viability |
| --- | --- |
| NCI-H1944 | 0.973 |
| NCI-H1975 | 0.842 |
| SK-LU-1 | 0.99 |
| ABC-1 | 1.08 |
| NCI-H358 | 0.985 |
| NCI-H661 | 1.03 |
| RERF-LC-KJ | 0.846 |

same assay, conditions: 0.03162 µM

| Cell Line | relative viability |
| --- | --- |
| NCI-H1944 | 1.13 |
| NCI-H1975 | 1.07 |
| SK-LU-1 | 1.03 |
| ABC-1 | 0.954 |
| NCI-H358 | 0.982 |
| NCI-H661 | 1.03 |
| RERF-LC-KJ | 1.06 |

same assay, conditions: 0.1 µM

| Cell Line | relative viability |
| --- | --- |
| NCI-H1944 | 0.729 |
| NCI-H1975 | 0.817 |
| SK-LU-1 | 0.67 |
| ABC-1 | 0.697 |
| NCI-H358 | 0.564 |
| NCI-H661 | 0.873 |
| RERF-LC-KJ | 0.861 |

same assay, conditions: 0.3162 µM

| Cell Line | relative viability |
| --- | --- |
| NCI-H1944 | 0.522 |
| NCI-H1975 | 0.809 |
| SK-LU-1 | 0.413 |
| ABC-1 | 0.41 |
| NCI-H358 | 0.302 |
| NCI-H661 | 0.827 |
| RERF-LC-KJ | 0.873 |

same assay, conditions: 1 µM

| Cell Line | relative viability |
| --- | --- |
| NCI-H1944 | 0.273 |
| NCI-H1975 | 0.402 |
| SK-LU-1 | 0.264 |
| ABC-1 | 0.273 |
| NCI-H358 | 0.17 |
| NCI-H661 | 0.565 |
| RERF-LC-KJ | 0.653 |

compound: CC1=C(N=C(N=C1N)[C@H](CC(=O)N)NC[C@@H](C(=O)N)N)C(=O)N[C@@H]([C@H](C2=CN=CN2)OC3C(C(C(C(O3)CO)O)O)OC4C(C(C(C(O4)CO)O)OC(=O)N)O)C(=O)N[C@H](C)[C@H]([C@H](C)C(=O)N[C@@H]([C@@H](C)O)C(=O)NCCC5=NC(=CS5)C6=NC(=CS6)C(=O)NCCC[S+](C)C)O [Bleomycin] + CS(=O)(=O)N1CCN(Cc2cc3nc(-c4cccc5[nH]ncc45)nc(N4CCOCC4)c3s2)CC1 [Pictilisib] (partner 1 µM); test: relative viability (nuclei count vs DMSO), 5 days (fraction); higher = more cells survive; settings: first compound 0.01 µM; main component drawn
How it was run: (§2)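 Each reported value is a median over duplicate plates. It expresses relative viability: treated-well nuclei count divided by vehicle-well nuclei count. Lung cancer cell lines in 1536-well plates were dosed by pin tool a day after seeding, alone with one drug or with a fixed anchor-drug dose plus five library-drug doses (not always all listed) in √10 steps, and nuclei were counted after 5 days.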

| Cell Line | relative viability |
| --- | --- |
| NCI-H1944 | 0.284 |
| NCI-H1975 | 0.288 |
| SK-LU-1 | 0.434 |
| ABC-1 | 0.68 |
| NCI-H358 | 0.349 |
| NCI-H661 | 0.523 |
| RERF-LC-KJ | 0.269 |

same assay, conditions: first compound 0.03162 µM; main component drawn

| Cell Line | relative viability |
| --- | --- |
| NCI-H1944 | 0.282 |
| NCI-H1975 | 0.256 |
| SK-LU-1 | 0.638 |
| ABC-1 | 0.689 |
| NCI-H358 | 0.355 |
| NCI-H661 | 0.387 |
| RERF-LC-KJ | 0.433 |

same assay, conditions: first compound 0.1 µM; main component drawn

| Cell Line | relative viability |
| --- | --- |
| NCI-H1944 | 0.271 |
| NCI-H1975 | 0.258 |
| SK-LU-1 | 0.474 |
| ABC-1 | 0.719 |
| NCI-H358 | 0.34 |
| NCI-H661 | 0.263 |
| RERF-LC-KJ | 0.316 |

same assay, conditions: first compound 0.3162 µM; main component drawn

| Cell Line | relative viability |
| --- | --- |
| NCI-H1944 | 0.204 |
| NCI-H1975 | 0.188 |
| SK-LU-1 | 0.352 |
| ABC-1 | 0.333 |
| NCI-H358 | 0.233 |
| NCI-H661 | 0.25 |
| RERF-LC-KJ | 0.188 |

same assay, conditions: first compound 1 µM; main component drawn

| Cell Line | relative viability |
| --- | --- |
| NCI-H1944 | 0.184 |
| NCI-H1975 | 0.134 |
| SK-LU-1 | 0.282 |
| ABC-1 | 0.286 |
| NCI-H358 | 0.228 |
| NCI-H661 | 0.245 |
| RERF-LC-KJ | 0.167 |

compound: COc1cc([C@@H]2c3cc4c(cc3[C@@H](O[C@@H]3O[C@@H]5CO[C@@H](C)O[C@H]5[C@H](O)[C@H]3O)[C@H]3COC(=O)[C@H]23)OCO4)cc(OC)c1O [Etoposide] + CS(=O)(=O)CCNCc1ccc(-c2ccc3ncnc(Nc4ccc(OCc5cccc(F)c5)c(Cl)c4)c3c2)o1 [Lapatinib] (partner 2 µM); test: as above; settings: first compound 0.01 µM
How it was run: as §2

| Cell Line | relative viability |
| --- | --- |
| NCI-H1944 | 0.76 |
| NCI-H1975 | 0.857 |
| SK-LU-1 | 0.752 |
| ABC-1 | 1.05 |
| NCI-H358 | 0.507 |
| NCI-H661 | 0.44 |
| RERF-LC-KJ | 0.882 |

same assay, conditions: first compound 0.03162 µM

| Cell Line | relative viability |
| --- | --- |
| NCI-H1944 | 1.01 |
| NCI-H1975 | 1.04 |
| SK-LU-1 | 0.949 |
| ABC-1 | 1.34 |
| NCI-H358 | 0.437 |
| NCI-H661 | 0.416 |
| RERF-LC-KJ | 0.863 |

same assay, conditions: first compound 0.1 µM

| Cell Line | relative viability |
| --- | --- |
| NCI-H1944 | 0.499 |
| NCI-H1975 | 0.739 |
| SK-LU-1 | 0.375 |
| ABC-1 | 1.09 |
| NCI-H358 | 0.369 |
| NCI-H661 | 0.314 |
| RERF-LC-KJ | 0.626 |

same assay, conditions: first compound 0.3162 µM

| Cell Line | relative viability |
| --- | --- |
| NCI-H1944 | 0.363 |
| NCI-H1975 | 0.528 |
| SK-LU-1 | 0.261 |
| ABC-1 | 1.1 |
| NCI-H358 | 0.268 |
| NCI-H661 | 0.283 |
| RERF-LC-KJ | 0.828 |

same assay, conditions: first compound 1 µM

| Cell Line | relative viability |
| --- | --- |
| NCI-H1944 | 0.226 |
| NCI-H1975 | 0.214 |
| SK-LU-1 | 0.202 |
| ABC-1 | 0.667 |
| NCI-H358 | 0.152 |
| NCI-H661 | 0.235 |
| RERF-LC-KJ | 0.733 |
